In patent US9347179B2, “Methods of preserving starch in pulp and controlling calcium precipitation and/or scaling” (Buckman Laboratories International, Inc., priority 2012, dated 2016):

Test system: α-amylase (BUZYME 2508)
Assay: α-amylase activity test with RED-STARCH substrate in paper mill process water
Format: biochemical
Details: for effect on the α-amylase activity (in words): high demand solution containing α-amylase, NaOCl at between 10% to 50% of actual chlorine demand; for α-amylase activity: 15 minutes at 40° C. before substrate, 30 minutes at 40° C., percentage of the maximum reading
Description: In the experiments described below, amylase activity was measured using a synthetic α-amylase substrate, “RED-STARCH” obtained from MEGAZYME® (Ireland), and a test procedure developed that allows the use of this substrate in complex paper mill process waters including samples containing cellulose.
The indicated test procedure developed for testing paper mill samples for α-amylase activity includes preparation of the substrate by adding 1 g of powdered RED-STARCH substrate to 50 mL of 0.5 M KCl solution ([…]), and warming up to 60° C. whilst shaking vigorously until dissolved. The prepared substrate can be used fresh or stored under refrigeration until used. A concentrated assay buffer solution was prepared as a 300 mM CaCl2.2H2O solution (39.2 g/l), which for use, is diluted 200 times in the assay. Assays can be performed on any liquid sample recovered in a paper mill. Samples with high turbidity may interfere with the final measurement step. Accordingly, samples containing fiber can be filtered through a paper filter, and liquid from high consistency samples can be recovered by squeezing liquid from the sample. To perform the assay on a sample, 30 μl assay buffer, 3 ml RED-STARCH substrate solution, and a 3 ml test sample solution can be added to a 35 ml test vial, and mix and incubate the vial and contents at constant temperature (35-40° C.) for 30 minutes. The reaction is ended by adding 10 ml ethanol (denatured) or methanol and shaking vigorously, and then allowing the vial and its contents to stand for 2 minutes before filtering the contents through a paper filter. High molecular weight material can be removed by the filtering. Using a 10 ml syringe, the filtered liquid is passed through a 0.22 or 0.45 μm disposable filter cartridge. The liquid that passes through the cartridge is introduced into a spectrophotometer cuvette, and the absorbance (OD) of the reaction solution, and a separate reaction blank, are measured using a spectrophotometer. The reaction blank is prepared by adding 10 ml ethanol or methanol to a test vial first, then add 30 μl assay buffer, 3 ml red starch substrate solution, and a 3 ml test solution, and prepare the samples for measurement as above. The spectrophotometer can be a Hach DR/890 Colorimeter (Hach Company, Loveland Colo.), or other spectrophotometer device. Absorbance can be measured as optical density (OD). On incubation of the RED-STARCH substrate with α-amylase, the substrate can be depolymerized to produce low molecular weight dyed fragments which remain in solution on addition of alcohol to the reaction mixture. The measured value of OD is directly proportional to the α-amylase activity in the test sample. Most spectrophotometers have a scale that reads in OD (absorbance) units, which is a logarithmic scale. A user edited program can be entered into the DR/890 device, including choosing a wavelength of 510 nm at which absorbance is measured, using water as a blank (OD=0), and preparing a maximum α-amylase activity sample by adding a small amount of BUZYME® 2508 (Buckman Laboratories, Belgium) to water and using this in the assay (max. OD that can be measured is approximately 25). The range that is obtained with this program is very large and can suffice for all paper mill samples. Using this testing procedure, paper mill samples typically have absorbance values in the range of 1-7. If a sample gives a maximum reading, it can be diluted in water to determine a more precise value. Results can be represented as the actual number or as a percentage of the maximum reading of the procedure which is 25. The results in Table 1 below show results for α-amylase activity as a percentage of the maximum reading.
In the tests conducted, process water was used that was taken from a coated paper machine pulper fill water tank that was not being treated with an oxidizing program. First, the actual chlorine and monochloramine (NH2Cl) demands of this process water were determined (Table 1). […]

[1] = oxidant added at 10.0% of demand
[2] = oxidant added at 25.0% of demand
[3] = oxidant added at 50% of demand (NaOCl printed 50/0%)
[4] = oxidant added at 100.0% of demand

activity to inactivate amylases (in words) (in direct tests) | SMILES | effect on the α-amylase activity (in words) | α-amylase activity [1] | α-amylase activity [2] | α-amylase activity [3] | α-amylase activity [4]
– | NCl [NH2Cl, monochloramine] | no significant effect | 100.0% | 98.5% | 99.3% | 99.1%
very efficient | OCl [NaOCl, sodium hypochlorite] | effective to reduce the α-amylase activity | 99.2% | 87.4% | 43.8% | 2.1%
